Data from PubChem BioAssay (NCI).
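Exposure lasted 48 hours, with cells grown in 96-well plates and compounds tested at five concentrations. Definition used: TGI = concentration required for complete inhibition of growth.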

Tests used:
Assay in all cases: NCI tumour cell line growth inhibition, 48 h
UO-31 renal = tested on: UO-31 renal
ACHN renal = tested on: ACHN renal
NCI-H226 lung = tested on: NCI-H226 lung
UACC-257 melanoma = tested on: UACC-257 melanoma
U251 CNS = tested on: U251 CNS
SW-620 colon = tested on: SW-620 colon
A549 NSCLC = tested on: A549 NSCLC
TK-10 renal = tested on: TK-10 renal
786-0 renal = tested on: 786-0 renal
OVCAR-8 ovarian = tested on: OVCAR-8 ovarian
MDA-MB-231 breast = tested on: MDA-MB-231 breast
SN12C renal = tested on: SN12C renal
RXF 393 renal = tested on: RXF 393 renal
MOLT-4 leukemia = tested on: MOLT-4 leukemia
KM12 colon = tested on: KM12 colon
RPMI-8226 leukemia = tested on: RPMI-8226 leukemia
A498 renal = tested on: A498 renal
HL-60(TB) leukemia = tested on: HL-60(TB) leukemia
COLO 205 colon = tested on: COLO 205 colon
MDA-N = tested on: MDA-N
SNB-19 CNS = tested on: SNB-19 CNS
K-562 leukemia = tested on: K-562 leukemia
SR leukemia = tested on: SR leukemia
HOP-62 NSCLC = tested on: HOP-62 NSCLC
BT-549 breast = tested on: BT-549 breast
NCI-H23 lung = tested on: NCI-H23 lung
SK-MEL-28 melanoma = tested on: SK-MEL-28 melanoma
HS 578T breast = tested on: HS 578T breast
M14 melanoma = tested on: M14 melanoma
SK-MEL-5 melanoma = tested on: SK-MEL-5 melanoma
EKVX NSCLC = tested on: EKVX NSCLC
OVCAR-5 ovarian = tested on: OVCAR-5 ovarian
UACC-62 melanoma = tested on: UACC-62 melanoma
HCT-15 colon = tested on: HCT-15 colon
SNB-75 CNS = tested on: SNB-75 CNS
HOP-92 NSCLC = tested on: HOP-92 NSCLC
PC-3 prostate = tested on: PC-3 prostate
MCF7 breast = tested on: MCF7 breast
IGROV1 ovarian = tested on: IGROV1 ovarian
HT29 colon = tested on: HT29 colon
HCC-2998 colon = tested on: HCC-2998 colon
SK-MEL-2 melanoma = tested on: SK-MEL-2 melanoma
HCT-116 colon = tested on: HCT-116 colon
NCI-H460 lung = tested on: NCI-H460 lung
MALME-3M melanoma = tested on: MALME-3M melanoma
SF-295 CNS = tested on: SF-295 CNS
T-47D breast = tested on: T-47D breast
SF-539 CNS = tested on: SF-539 CNS
DU-145 prostate = tested on: DU-145 prostate
OVCAR-3 ovarian = tested on: OVCAR-3 ovarian
MDA-MB-435 = tested on: MDA-MB-435
OVCAR-4 ovarian = tested on: OVCAR-4 ovarian
LOX IMVI melanoma = tested on: LOX IMVI melanoma
SF-268 CNS = tested on: SF-268 CNS
CCRF-CEM leukemia = tested on: CCRF-CEM leukemia
CAKI-1 renal = tested on: CAKI-1 renal
NCI/ADR-RES ovarian = tested on: NCI/ADR-RES ovarian
SK-OV-3 ovarian = tested on: SK-OV-3 ovarian
NCI-H522 lung = tested on: NCI-H522 lung

Measured: TGI

CCOC(=O)C1CCCCc2sc(N)c(C#N)c21 (stereo not drawn)
not listed: SF-295 CNS | T-47D breast | SF-539 CNS | DU-145 prostate | OVCAR-3 ovarian | MDA-MB-435 | OVCAR-4 ovarian | LOX IMVI melanoma | SF-268 CNS | CCRF-CEM leukemia | CAKI-1 renal | NCI/ADR-RES ovarian | SK-OV-3 ovarian | NCI-H522 lung
> 100 µM: all other assays above

O=C(O)C1C2C=CC(O2)C1C(=O)Nc1ncccn1 (stereo not drawn)
not listed: HCC-2998 colon
> 100 µM: all other assays above
